The subject of one assay is cats. Briefly: Cat palatability, two-pan method (intake ratio). It counts as in vivo. The settings on record: for IR-A: Ration B incumbent; for effect on palatability / taste (in words): summary statement, no trial details.
The test system of assay [1] is Salmonella (five Salmonella enterica serovars). Briefly: Cat kibble challenge with dried five strain Salmonella cocktail inoculum. The assay is classed as cell-based. The following applies: for Salmonella counts on challenged cat kibble vs control palatant (in words): cat kibble challenge. The method, then:
(§1) One ml of each Salmonella culture was separately inoculated into a beaker containing tempered (ambient), sterilized MBM which was then incubated at 37° C. for 48 hours. Inoculated MBM was dispensed (approx. 200 g) into sterile 250 ml centrifuge bottles and centrifuged at 5,000 rpm for 10 minutes. The supernatant was decanted and autoclaved for disposal. The pellets were suspended in 10 ml TSB-20% glycerol. Suspensions (approximately 150-160 g) were transferred to sterilized 250 ml polycarbonate straight side wide mouth jars with lids (Nalgene, Thermo Scientific). Jars containing MBM-Salmonella suspensions were immediately frozen at −70° C. for 1 hour. Frozen MBM-Salmonella suspensions were lyophilized using a FreeZone-1 Liter benchtop freeze dry system (Labconco) (approx. 96 hours, −50° C.). Each lyophilized Salmonella culture was pulverized to a fine powder using a sterile mortar and pestle. Twenty g of each of the five lyophilized Salmonella cultures was combined in a sterile wide mouth glass jar to make the dried Salmonella cocktail inoculum. […] Solidified plates were incubated inverted at 37° C. for 16-18 hours. Visible colonies were counted and colony forming units per gram were calculated (CFU/g). […] Kibble and inoculum were mixed together for five minutes by hand in a plastic zip top bag, and allowed to rest for 1 hour prior to sampling. Coated, un-inoculated kibble was also included in the study and tested for Salmonella (direct plating and FDA BAM), total aerobic bacteria, mold and yeast counts, pH, percent moisture, and water activity. For each analysis time point challenged kibble was sampled in triplicate. Kibbles were stored at ambient temperature.
(§2) Challenged kibble samples bags were mixed thoroughly, then 5.00 g (±0.01) was aseptically weighed into a sterile plastic bag and diluted with 45 ml sterile Phosphate Buffer (Butterfield) diluent (BPB) containing (g/l) KH2PO4 34.0, pH adjusted to 7.2 with 1N sodium hydroxide and homogenized using a Stomacher (Seward Stomacher 80) for 1 minute and serially diluted in BPB for plating. The plates are poured with tempered (45° C.) XLD agar. After solidification, plates were inverted and placed in an incubator (37° C.). Colonies were counted and CFU/g was calculated. The counts for each triplicate sample were averaged and expressed as log CFU/g. Those samples of which were below the detection limit of <10 CFU/g were assigned 0 log CFU/g for the purpose of statistical analysis. Analysis of Variance using the LSD separation of means method was performed to analyze the data using StatGraphics software (StatPoint Technologies, Inc. Warrenton, Va.).
All procedures for the Phase 3 kibble challenge were conducted as described for Phase 2.

The test system is the same in assay [2]. Briefly: Dog kibble challenge with dried five strain Salmonella cocktail inoculum. The assay is classed as cell-based. The following applies: dog kibble challenge. The method, then: as §1, §2
Dry dog palatants were formulated with fumaric acid or SBS to deliver 0.5% acid to the surface of the kibble. The effect of each acid on Salmonella challenged on the surface of dog kibble was examined. Dog kibbles were challenged with dried five strain Salmonella cocktail inoculum.
The effect of each acid on Salmonella challenged on the surface of dog kibble was examined. Dog kibbles were challenged with dried five strain Salmonella cocktail inoculum prep.

Where [3] appears, read: Example 4 cat trials, formula 89-87 or 89-145 vs incumbent dry palatant.
Setting [4] is: First set, Prototype 89-87 at 2.5%, 0.25% acid on kibble.
The mark [5] stands for this setting: First set, Prototype 89-87 at 2.5%, 0.5% total acid on kibble.
[6] abbreviates: Second set, Formula 89-87, 0.5% total acid on kibble.
Where [7] appears, read: Table 14, single acid 0.5% on cat kibble, day 0.
Setting [8] is: Table 14, single acid 0.5% on cat kibble, day 1.
Where [9] appears, read: Table 14, single acid 0.5% on cat kibble, day 3.
The mark [10] stands for this setting: Table 14, single acid 0.5% on cat kibble, day 7.
[11] abbreviates: Table 14, single acid 0.5% on cat kibble, day 14.
The mark [12] stands for this setting: Table 14, single acid 0.5% on cat kibble, day 23.
Setting [13] is: Second set, Formula 89-87, 0.25% acid on kibble.

For `O=C(O)CCC(=O)O` [Suc, succinic acid], the “palatability (in words)” value with cats (setting [3]) is reported as “palatable alternate to fumaric acid”. The figures for the IR-A in the assay with cats (setting [4]) and in the assay on cats (setting [5]) were 0.56 (N.S.) and 0.54 (N.S.), respectively. In addition, the “Salmonella counts on challenged cat kibble vs control palatant (in words)” value in assay [1] was “effective at significantly reducing Salmonella”. In addition, the “Salmonella counts on challenged dog kibble vs control palatant (in words)” value in assay [2] was “effective at significantly reducing Salmonella”.
Turning to `O=C(O)/C=C\C(=O)O` [maleic acid, reference compound], the “effect on palatability / taste (in words)” value in the assay with cats is listed as “repulsive, astringent taste”.
In the case of `O=C(O)CC(O)C(=O)O` (stereo not drawn) [Malic acid, reference compound], the “effect on palatability / taste (in words)” value in the assay with cats is reported as “adverse effects on palatability”.
Turning to `O=C(O)CC(O)(CC(=O)O)C(=O)O` [CA, citric acid], the “palatability (in words)” value in the assay with cats (setting [3]) was “adequate palatability”. Besides, in the assay with cats (setting [6]), the IR-A is 0.46% (N.S.). Further, the Salmonella was 2.05 ± 0.05^Ba log CFU/g in assay [1] (setting [7]); 1.54 ± 0.16^BCDab log CFU/g in assay [1] (setting [8]); 1.46 ± 0.09^ABb log CFU/g in assay [1] (setting [9]); 0.77 ± 0.39^ABc log CFU/g in assay [1] (setting [10]); 0.00 ± 0.00^Bd log CFU/g in assay [1] (setting [11]); 0.00 ± 0.00^Bd log CFU/g in assay [1] (setting [12]). In assay [1], the “Salmonella counts on challenged cat kibble vs control palatant (in words)” value was “effective at significantly reducing Salmonella”.
For `O=C(O)c1cc(O)c(O)c(O)c1` [GA, gallic acid], the “palatability (in words)” value in the assay on cats (setting [3]) is “very good palatability”. Further, the IR-A in the assay with cats (setting [13]) was 0.55 (N.S.); in the assay on cats (setting [6]) it was 0.70 (p ≤ 0.001).
For `C/C=C/C=C/C(=O)O` [Sorbic Acid, sorbic acid], the IR-A was 0.59 p ≤ 0.001) in the assay with cats (Confirmation trials, Prototype 89-87, 0.5% total acid on kibble); 0.74 (p ≤ 0.001) in the assay with cats (setting [4]); 0.70 (p ≤ 0.001) with cats (setting [5]). Further, the “palatability (in words)” value is “scored significantly higher than the incumbent flavor” with cats (Example 4 cat trials, formula 89-87 or 89-145 vs incumbent dry palatant, listed as Sorbic acid) and “remained high” in the assay on cats (Example 4 cat trials, formula 89-87 or 89-145 vs incumbent dry palatant, listed as sorbic acid). In addition, the Salmonella is 3.50 ± 0.06^Ba log CFU/g in assay [1] (Table 12, 0.50% total acid on cat kibble, day 0); 2.10 ± 0.08^Bb log CFU/g in assay [1] (Table 12, 0.50% total acid on cat kibble, day 1); 0.77 ± 0.39^Bc log CFU/g in assay [1] (Table 12, 0.50% total acid on cat kibble, day 5); 0.49 ± 0.49^Bc log CFU/g in assay [1] (Table 12, 0.50% total acid on cat kibble, day 7); 0.67 ± 0.33^Bc log CFU/g in assay [1] (Table 12, 0.50% total acid on cat kibble, day 14); 0.00 ± 0.00^Bc log CFU/g in assay [1] (Table 12, 0.50% total acid on cat kibble, day 21). The “Salmonella counts on challenged cat kibble vs control palatant (in words)” value was “effective at significantly reducing Salmonella” in assay [1] (listed as sorbic) and “significantly lower” in assay [1] (listed as sorbic acid). In assay [2], the “Salmonella counts on challenged dog kibble vs control palatant (in words)” value is “effective at significantly reducing Salmonella”.
Take `O=C(OC[C@H]1O[C@@H](OC(=O)c2cc(O)c(O)c(OC(=O)c3cc(O)c(O)c(O)c3)c2)[C@H](OC(=O)c2cc(O)c(O)c(OC(=O)c3cc(O)c(O)c(O)c3)c2)[C@@H](OC(=O)c2cc(O)c(O)c(OC(=O)c3cc(O)c(O)c(O)c3)c2)[C@@H]1OC(=O)c1cc(O)c(O)c(OC(=O)c2cc(O)c(O)c(O)c2)c1)c1cc(O)c(O)c(OC(=O)c2cc(O)c(O)c(O)c2)c1` [TA, tannic acid]: the “palatability (in words)” value with cats (setting [3]) was “acceptable palatability”. In addition, the IR-A in the assay on cats (setting [13]) is recorded as 0.55 (N.S). For the same compound, the Salmonella in assay [1] (setting [7]) is recorded as 3.19 ± 0.17^Aa log CFU/g; in assay [1] (setting [8]), 2.51 ± 0.26^Ab log CFU/g; in assay [1] (setting [9]) it was 2.05 ± 0.18^Ab log CFU/g; in assay [1] (setting [10]), 1.50 ± 0.10^Ac log CFU/g; in assay [1] (setting [11]), 1.46 ± 0.16^Ac log CFU/g; in assay [1] (setting [12]) it was 0.00 ± 0.00^Bd log CFU/g. In addition, the “Salmonella counts on challenged cat kibble vs control palatant (in words)” value in assay [1] is listed as “effective at significantly reducing Salmonella”.
Take `O=C(O)C(O)C(O)C(=O)O` (stereo not drawn) [tartaric acid, reference compound]: the “palatability (in words)” value in the assay with cats (Example 1 cat trials, dry palatant 1.5% on kibble, vs benchmark) was “significant declines in palatability”. In addition, the IR in the assay with cats (Trial 412, 33% tartaric acid in formula, palatant 1.5% on kibble, vs name brand cat food) is on record as 0.24. In addition, in the assay with cats, the “effect on palatability / taste (in words)” value is on record as “adverse effects on palatability”.

The record behind these values is patent US10070660B2, “Pet food palatability with antimicrobial properties based on organic acids” (KEMIN INDUSTRIES, INC., priority 2012, dated 2018).
